The results in this text go back to patent US7943607B2, “Heteroaryl benzamide derivatives for use as GLK activators in the treatment of diabetes” (AstraZeneca AB, priority 2005, dated 2011).

Experiment [1] addresses T1, recombinant human pancreatic GLK (Homo sapiens, UniProt P35557).
T1 sequence (P35557 1-465): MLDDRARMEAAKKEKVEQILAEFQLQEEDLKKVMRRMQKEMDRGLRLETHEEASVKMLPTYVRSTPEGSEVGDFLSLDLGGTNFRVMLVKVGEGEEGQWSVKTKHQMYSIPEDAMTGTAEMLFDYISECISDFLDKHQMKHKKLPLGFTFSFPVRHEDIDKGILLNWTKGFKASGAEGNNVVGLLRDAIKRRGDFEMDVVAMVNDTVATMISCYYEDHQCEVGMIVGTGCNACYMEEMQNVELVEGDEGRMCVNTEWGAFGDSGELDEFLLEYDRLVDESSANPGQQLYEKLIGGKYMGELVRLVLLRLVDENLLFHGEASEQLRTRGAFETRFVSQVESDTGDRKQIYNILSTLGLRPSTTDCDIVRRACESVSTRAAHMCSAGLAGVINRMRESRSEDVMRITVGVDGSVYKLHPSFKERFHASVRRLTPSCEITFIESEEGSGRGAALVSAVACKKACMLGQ
The experiment is described as follows: biochemical.

Experiment [2] concerns Zucker obese fa/fa rats. The experiment is described as follows: Oral Glucose Tolerance Test (OGTT). The class given is in vivo, rat. As to conditions: 10 mg/kg; given orally 120 minutes before oral glucose 2 g/kg; Zucker obese fa/fa rats on high fat diet. The protocol: Oral glucose tolerance tests were done on conscious Zucker obese fa/fa rats (age 12-13 weeks or older) fed a high fat diet (45% kcal fat) for at least two weeks prior to experimentation. The animals were fasted for 2 hours before use for experiments. A test compound or a vehicle was given orally 120 minutes before oral administration of a glucose solution at a dose of 2 g/kg body weight. Blood glucose levels were measured using a Accucheck glucometer from tail bled samples taken at different time points before and after administration of glucose (time course of […]). A time curve of the blood glucose levels was generated and the area-under-the-curve (AUC) for 120 minutes was calculated (the time of glucose administration being time zero). Percent reduction in glucose excursion was determined using the AUC in the vehicle-control group as zero percent reduction.

Turning to `C[C@@H](CO)Oc1cc(Oc2cc3c(cc2F)S(=O)(=O)CCCO3)cc(C(=O)Nc2ccn(C)n2)c1` [Example 3, 3-[(7-Fluoro-5,5-dioxido-3,4-dihydro-2H-1,5-benzoxathiepin-8-yl)oxy]-5-[(1S)-2-hydroxy-1-methylethoxy]-N-(1-methyl-1H-pyrazol-3-yl)benzamide], in experiment [1], the EC50 turned out to be 38 nM. The “OGTT activity (percent reduction in glucose excursion, AUC vs vehicle control)” value in experiment [2] worked out at 29%.

One may read the EC50 as the concentration giving half of the maximal effect.
